Values of other authors, collected in US20260356814A1, “INDOLINE DERIVATIVES AS SEROTONERGIC AGENTS USEFUL FOR THE TREATMENT OF DISORDERS RELATED THERETO” (MINDSET PHARMA INC., priority 2022, published 2026).
Where two headings read alike, the source gives them in different places.

How the values were obtained:
tobacco use disorder = details: cited from earlier work
[1] = system: brain's default mode network; details: intravenously administered; cited from earlier work
[2] = system: subpopulations of low attentive and low motivated rats; details: rat, in vivo; cited from earlier work
[3] = system: absolute metabolic rate of glucose in frontal and other cortical regions, striatal and limbic subcortical structures; details: 15 or 20 mg orally, healthy participants; cited from earlier work
[4] = system: depression and anxiety associated with life-threatening disease; details: in a supportive setting; cited from earlier work
human 5-HT2A receptor = human 5-HT2A receptor (Homo sapiens, UniProt P28223); details: cited from earlier work
human 5-HT2A receptor, sequence (P28223 whole entry): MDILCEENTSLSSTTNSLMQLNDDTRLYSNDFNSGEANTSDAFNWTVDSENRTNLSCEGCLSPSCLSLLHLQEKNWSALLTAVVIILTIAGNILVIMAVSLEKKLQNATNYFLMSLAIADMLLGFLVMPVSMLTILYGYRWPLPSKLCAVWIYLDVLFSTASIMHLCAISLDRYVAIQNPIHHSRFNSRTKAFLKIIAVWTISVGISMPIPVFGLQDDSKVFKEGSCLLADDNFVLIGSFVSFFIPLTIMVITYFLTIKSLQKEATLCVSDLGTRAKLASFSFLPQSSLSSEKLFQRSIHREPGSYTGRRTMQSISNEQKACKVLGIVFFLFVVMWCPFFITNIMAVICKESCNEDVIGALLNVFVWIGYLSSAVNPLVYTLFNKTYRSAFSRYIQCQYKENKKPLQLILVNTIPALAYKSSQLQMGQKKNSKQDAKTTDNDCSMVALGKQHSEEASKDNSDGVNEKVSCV

[5] = biological target: 5-HT2A and 5-HT2C receptors; details: compared with LSD; cited from earlier work
[6] = controlled setting; cited from earlier work
5-HT2 receptor = details: daily administration; cited from earlier work

CN(C)CCc1c[nH]c2cccc(OP(=O)(O)O)c12 [Psilocybin, 4-phosphoryloxy-N,N-dimethyltrypatmine]
abstinence rate (tobacco use disorder; 12 months follow-up): 67%
abstinence rate (tobacco use disorder; six months follow-up): 80%
oscillatory power in areas of the brain's default mode network [1]: decreases in oscillatory power in areas of the brain's default mode network
performance on 5 choice serial reaction time and progressive ratio tasks [2]: improved performance on 5 choice serial reaction time and progressive ratio tasks
absolute metabolic rate of glucose [3]: increased absolute metabolic rate of glucose in frontal, and to a lesser extent in other, cortical regions as well as in striatal and limbic subcortical structures
anti-depressant and anxiolytic effects [4]: significant and sustained anti-depressant and anxiolytic effects
affinity for 5-HT2A, human versus rat receptor (human 5-HT2A receptor): stronger affinity for the human 5-HT2A receptor than for the rat receptor
K (i) for 5-HT2A and 5-HT2C relative to LSD [5]: lower K (i) for both 5-HT2A and 5-HT2C receptors than LSD
headache [6]: transient, delayed headache, with incidence, duration, and severity increased in a dose-related manner
5-HT2 receptor density in rat brain (5-HT2 receptor): reduce 5-HT2 receptor density in rat brain
